Source: ChEMBL document CHEMBL1909046, “DrugMatrix in vitro pharmacology data”

Tests used:
[1] = DRUGMATRIX: Nicotinic Acetylcholine radioligand binding (ligand: [125I] Epibatidine); type: cell membranes, Membrane; settings: imr-32; Not Active = under 50% inhibition at 10 µM
[2] = target: T1, Amine oxidase [flavin-containing] A (Homo sapiens, UniProt P21397); experiment: DRUGMATRIX: Monoamine Oxidase MAO-A enzyme inhibition (substrate: Kynuramine); set-up: species or system BTI-TN-5B1-4; settings: Not Active = under 50% inhibition at 10 µM
T1 sequence (P21397 whole entry): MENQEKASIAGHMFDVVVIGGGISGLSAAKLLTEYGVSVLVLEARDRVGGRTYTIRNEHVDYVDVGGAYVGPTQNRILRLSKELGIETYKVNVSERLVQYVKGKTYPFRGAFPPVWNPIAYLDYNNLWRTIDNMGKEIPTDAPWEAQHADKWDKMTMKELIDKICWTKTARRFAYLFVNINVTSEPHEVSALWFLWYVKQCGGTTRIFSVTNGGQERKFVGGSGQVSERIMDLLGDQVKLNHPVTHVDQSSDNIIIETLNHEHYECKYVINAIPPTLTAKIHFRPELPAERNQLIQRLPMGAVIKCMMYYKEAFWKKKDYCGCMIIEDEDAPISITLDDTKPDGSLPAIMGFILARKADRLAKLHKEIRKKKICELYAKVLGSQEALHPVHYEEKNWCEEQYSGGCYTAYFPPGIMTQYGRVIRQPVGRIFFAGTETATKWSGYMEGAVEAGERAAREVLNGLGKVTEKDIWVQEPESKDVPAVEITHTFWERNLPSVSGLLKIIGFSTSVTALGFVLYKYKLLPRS

[3] = DRUGMATRIX: Glutamate, NMDA, Phencyclidine radioligand binding (ligand: [3H] TCP); type: cell membranes, Rattus norvegicus, Wistar, Cerebral cortex, Membrane; settings: Not Active = under 50% inhibition at 10 µM
[4] = target: Sigma non-opioid intracellular receptor 1 (Homo sapiens, UniProt Q99720); experiment: DRUGMATRIX: Sigma1 radioligand binding (ligand: [3H] Haloperidol); type: cell membranes, Jurkat, Membrane; settings: jurkat; Not Active = under 50% inhibition at 10 µM
[5] = target: T2, 3-hydroxy-3-methylglutaryl-coenzyme A reductase (Homo sapiens, UniProt P04035); set-up: species or system Escherichia coli;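 note: enzyme inhibition assay of HMG-CoA reductase using radiolabeled [14C]HMG-CoA as substrate; in other assays of this panel Not Active means under 50% inhibition at 10 µM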
T2 sequence (P04035 whole entry): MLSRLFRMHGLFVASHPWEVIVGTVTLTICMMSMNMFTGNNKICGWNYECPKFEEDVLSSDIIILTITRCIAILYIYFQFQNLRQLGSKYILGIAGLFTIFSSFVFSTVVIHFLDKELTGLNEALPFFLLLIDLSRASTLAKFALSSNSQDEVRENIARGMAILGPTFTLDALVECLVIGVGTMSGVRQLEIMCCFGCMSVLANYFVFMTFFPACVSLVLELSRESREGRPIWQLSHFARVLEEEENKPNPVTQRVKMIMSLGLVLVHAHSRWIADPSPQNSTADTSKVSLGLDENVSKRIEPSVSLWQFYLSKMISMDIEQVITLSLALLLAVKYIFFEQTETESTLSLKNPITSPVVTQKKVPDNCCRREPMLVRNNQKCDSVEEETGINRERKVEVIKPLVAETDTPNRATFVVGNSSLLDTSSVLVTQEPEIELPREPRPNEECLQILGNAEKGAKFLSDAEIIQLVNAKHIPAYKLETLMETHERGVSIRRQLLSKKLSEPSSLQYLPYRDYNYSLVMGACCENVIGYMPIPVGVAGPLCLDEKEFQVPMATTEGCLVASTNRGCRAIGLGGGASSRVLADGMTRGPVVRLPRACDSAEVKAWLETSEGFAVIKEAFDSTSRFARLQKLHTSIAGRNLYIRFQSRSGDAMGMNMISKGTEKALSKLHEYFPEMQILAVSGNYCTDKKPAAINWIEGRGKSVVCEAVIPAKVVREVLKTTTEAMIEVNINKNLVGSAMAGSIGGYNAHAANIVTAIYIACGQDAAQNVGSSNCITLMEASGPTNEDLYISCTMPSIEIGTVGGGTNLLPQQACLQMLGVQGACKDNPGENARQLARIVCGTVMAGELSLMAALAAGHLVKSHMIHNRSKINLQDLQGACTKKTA

[6] = target: T3, Muscarinic acetylcholine receptor M2 (Homo sapiens, UniProt P08172); type: cell membranes, CHO-K1, Membrane; note: in other assays of this panel Not Active means under 50% inhibition at 10 µM
T3 sequence (P08172 whole entry): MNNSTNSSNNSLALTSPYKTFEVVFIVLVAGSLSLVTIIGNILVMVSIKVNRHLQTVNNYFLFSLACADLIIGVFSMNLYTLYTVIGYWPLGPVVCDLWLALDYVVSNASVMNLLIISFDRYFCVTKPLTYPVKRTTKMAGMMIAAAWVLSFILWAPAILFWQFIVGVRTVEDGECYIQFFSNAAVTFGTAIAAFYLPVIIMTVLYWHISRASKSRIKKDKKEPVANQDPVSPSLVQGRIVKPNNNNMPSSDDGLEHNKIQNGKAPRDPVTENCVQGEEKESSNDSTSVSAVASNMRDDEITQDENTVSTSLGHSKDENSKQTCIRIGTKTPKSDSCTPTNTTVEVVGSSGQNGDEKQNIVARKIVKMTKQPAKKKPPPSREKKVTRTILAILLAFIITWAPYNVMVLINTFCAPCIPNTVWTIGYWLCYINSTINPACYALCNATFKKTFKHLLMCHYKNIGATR

Sigma non-opioid intracellular receptor 1, sequence (Q99720 whole entry): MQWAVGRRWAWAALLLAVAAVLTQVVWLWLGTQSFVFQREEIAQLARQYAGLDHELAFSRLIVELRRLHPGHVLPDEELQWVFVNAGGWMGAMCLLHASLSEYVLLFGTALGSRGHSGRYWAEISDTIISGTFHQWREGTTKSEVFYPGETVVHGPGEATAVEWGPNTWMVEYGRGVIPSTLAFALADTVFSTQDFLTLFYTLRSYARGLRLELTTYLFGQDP

Which IC50 [1] does the source give for `c1ccc(Cn2ccnc2)cc1` here?
Its IC50 is “Not Active”.

What about the Ki [1] of the same molecule?
The Ki was “Not Active”.

And the IC50 ([2]; bti-tn-5b1-4)?
Its IC50 is “Not Active”.

And the IC50 [3]?
The IC50 was “Not Active”.

What about the Ki [3] of the same molecule?
Its Ki is “Not Active”.

And the IC50 [4]?
Its IC50 is “Not Active”.

And the IC50 [5]?
The IC50 was “Not Active”.

What about the IC50 ([6]; cho-k1) of the same molecule?
Its IC50 is “Not Active”.

What does the source list for `C[C@H]1C[C@H]2[C@@H]3CCC4=CC(=O)C=C[C@]4(C)[C@@]3(F)[C@@H](O)C[C@]2(C)[C@@]1(O)C(=O)CO` [BETAMETHASONE]?
IC50 [1]: Not Active; Ki [1]: Not Active; IC50 ([2]; bti-tn-5b1-4): Not Active; IC50 [3]: Not Active; Ki [3]: Not Active; IC50 [4]: Not Active; IC50 [5]: Not Active; IC50 ([6]; cho-k1): Not Active

Which IC50 [1] does the source give for `Nc1nc(N)c2nc(CNc3ccc(C(=O)N[C@@H](CCC(=O)O)C(=O)O)cc3)cnc2n1` [AMINOPTERIN] here?
Its IC50 is “Not Active”.

What about the Ki [1] of the same molecule?
The Ki was “Not Active”.

What about the IC50 ([2]; bti-tn-5b1-4) of the same molecule?
The IC50 was “Not Active”.

And the IC50 [3]?
Its IC50 is “Not Active”.

And the Ki [3]?
The Ki was “Not Active”.

What about the IC50 [4] of the same molecule?
The IC50 was “Not Active”.

What about the IC50 [5] of the same molecule?
The IC50 was “Not Active”.

What about the IC50 ([6]; cho-k1) of the same molecule?
The IC50 was “Not Active”.

For `CC(=O)Nc1ccc2c(c1)Cc1ccccc1-2` [2-ACETYLAMINOFLUORENE], which IC50 [1] is on record?
The IC50 was “Not Active”.

What about the Ki [1] of the same molecule?
The Ki was “Not Active”.

What about the IC50 ([2]; read-out: IC50) of the same molecule?
The IC50 was 0.059 µM.

And the IC50 [3]?
The IC50 was “Not Active”.

What about the Ki [3] of the same molecule?
Its Ki is “Not Active”.

And the IC50 [4]?
Its IC50 is “Not Active”.

And the IC50 [5]?
Its IC50 is “Not Active”.

What about the IC50 ([6]; cho-k1) of the same molecule?
The IC50 was “Not Active”.

With `C=C(Cl)Cl` [1,1-DICHLOROETHENE] as the molecule, how does the IC50 [1] read?
The IC50 was “Not Active”.

And the Ki [1]?
Its Ki is “Not Active”.

What about the IC50 ([2]; bti-tn-5b1-4) of the same molecule?
The IC50 was “Not Active”.

And the IC50 [3]?
Its IC50 is “Not Active”.

And the Ki [3]?
Its Ki is “Not Active”.

What about the IC50 [4] of the same molecule?
The IC50 was “Not Active”.

What about the IC50 [5] of the same molecule?
Its IC50 is “Not Active”.

And the IC50 ([6]; cho-k1)?
Its IC50 is “Not Active”.

Which results are given for `C#C[C@]1(O)CC[C@H]2[C@@H]3CCC4=CC(=O)CC[C@@H]4[C@H]3CC[C@@]21C` [NORETHINDRONE]?
IC50 [1]: Not Active; Ki [1]: Not Active; IC50 ([2]; bti-tn-5b1-4): Not Active; IC50 [3]: Not Active; Ki [3]: Not Active; IC50 [4]: Not Active; IC50 [5]: Not Active; IC50 ([6]; cho-k1): Not Active

Which IC50 [1] does the source give for `CC[C@H]1OC(=O)[C@H](C)[C@@H](O[C@H]2C[C@@](C)(OC)[C@@H](O)[C@H](C)O2)[C@H](C)[C@@H](O[C@@H]2O[C@H](C)C[C@H](N(C)C)[C@H]2O)[C@](C)(O)C[C@@H](C)C(=O)[C@H](C)[C@@H](O)[C@]1(C)O` [ERYTHROMYCIN] here?
The IC50 was “Not Active”.

What about the Ki [1] of the same molecule?
The Ki was “Not Active”.

And the IC50 ([2]; bti-tn-5b1-4)?
The IC50 was “Not Active”.

What about the IC50 [3] of the same molecule?
The IC50 was “Not Active”.

And the Ki [3]?
The Ki was “Not Active”.

What about the IC50 [4] of the same molecule?
Its IC50 is “Not Active”.

What about the IC50 [5] of the same molecule?
Its IC50 is “Not Active”.

And the IC50 ([6]; cho-k1)?
The IC50 was “Not Active”.

Which results are given for `c1ccc2c(c1)Nc1ccccc1S2` [PHENOTHIAZINE]?
IC50 [1]: Not Active; Ki [1]: Not Active; IC50 ([2]; read-out: IC50): 0.592 µM; IC50 [3]: Not Active; Ki [3]: Not Active; IC50 [4]: Not Active; IC50 [5]: Not Active; IC50 ([6]; cho-k1): Not Active

What does the source list for `C[C@H](C(=O)O)c1ccc2oc(-c3ccc(F)cc3)nc2c1` [FLUNOXAPROFEN]?
IC50 [1]: Not Active; Ki [1]: Not Active; IC50 ([2]; bti-tn-5b1-4): Not Active; IC50 [3]: Not Active; Ki [3]: Not Active; IC50 [4]: Not Active; IC50 [5]: Not Active; IC50 ([6]; cho-k1): Not Active

What does the source list for `CC1(COc2ccc(CC3SC(=O)NC3=O)cc2)CCCCC1` (configuration not stated) [CIGLITAZONE]?
IC50 [1]: Not Active; Ki [1]: Not Active; IC50 ([2]; read-out: IC50): 29.2 µM; IC50 [3]: Not Active; Ki [3]: Not Active; IC50 [4]: Not Active; IC50 [5]: Not Active; IC50 ([6]; read-out: IC50): 21.1 µM; Ki ([6]; read-out: Ki): 7.5 µM

Which IC50 [1] does the source give for `C=CCN1CC[C@]23c4c5ccc(O)c4O[C@H]2/C(=N/N=C2\CC[C@@]4(O)[C@H]6Cc7ccc(O)c8c7[C@@]4(CCN6CC=C)[C@H]2O8)CC[C@@]3(O)[C@H]1C5` [NALOXONAZINE] here?
The IC50 was “Not Active”.

And the Ki [1]?
Its Ki is “Not Active”.

And the IC50 ([2]; bti-tn-5b1-4)?
Its IC50 is “Not Active”.

What about the IC50 [3] of the same molecule?
The IC50 was “Not Active”.

What about the Ki [3] of the same molecule?
Its Ki is “Not Active”.

And the IC50 [4]?
The IC50 was “Not Active”.

What about the IC50 [5] of the same molecule?
Its IC50 is “Not Active”.

What about the IC50 ([6]; cho-k1) of the same molecule?
The IC50 was “Not Active”.

For `C[N+](C)(C)CCOP(=O)([O-])OC[C@H](O)CO`, which IC50 [1] is on record?
The IC50 was “Not Active”.

And the Ki [1]?
Its Ki is “Not Active”.

And the IC50 ([2]; bti-tn-5b1-4)?
Its IC50 is “Not Active”.

And the IC50 [3]?
Its IC50 is “Not Active”.

And the Ki [3]?
The Ki was “Not Active”.

And the IC50 [4]?
The IC50 was “Not Active”.

And the IC50 [5]?
Its IC50 is “Not Active”.

What about the IC50 ([6]; cho-k1) of the same molecule?
Its IC50 is “Not Active”.
